Like-named read-outs stand apart in the source and are kept apart here.

For this assay, the target named is T1, CYP3A4 (Homo sapiens, UniProt P08684).
T1 construct: tissue Corning 452117; host or cells: human liver microsomes
Briefly: CYP450 inhibition assay in human liver microsomes, CYP3A4 (midazolam and testosterone). It is filed as in vitro ADME. As to the method: To evaluate the reliability and reproducibility of the CYP450 inhibition assay, we measured the inhibitory effects of selected positive control inhibitors of each CYP450 enzyme in human liver microsomes (HLM, Table 1, Figure 2). The potency of inhibition was estimated by observing the alteration in concentration of metabolites of CYP450 substrates (Table 1).
Reagents preparation. […] The stock solution of PDQ (10 mM) was prepared with methanol and further diluted to the range of 3 µM to 3 mM with methanol to ensure that the solvent of different PDQ samples contained the same amount (1%) of methanol.
The stock solutions of the positive control inhibitors and the probe substrates of CYP450 enzymes were prepared in methanol.
CYP450 inhibition assay. […] The assay was conducted in polypropylene 96-well plates (2.2 mL/well, Apricot Designs Inc., Covina, CA, USA).
The total volume of the reaction is 200 μL. The HLM mixtures (102 μL) containing individual probe substrates (Table 3), KH2PO4 buffer (100 mM, pH 7.4), and either PDQ or the positive control inhibitors (Table 3) were incubated for 10 min at 37 °C in a shaking incubator. Reactions were initiated by adding 98 μL NADPH (final concentration is 1.3 mM NADPH, 3 mM MgCl2 in 100 mM KH2PO4 buffer). The HLM reaction mixtures were shaken at 37 °C for various times (Table 4). The reaction time of CYP3A4 (midazolam), CYP2C19 and CYP2D6 were 3, 20 and 20 min, respectively, while the reactions of other CYP enzymes were terminated after 10 min. The reactions were quenched by adding 200 μL acetonitrile containing 3% formic acid and specific internal standards (Table 4). After shaking at 1000 rpm for 10 min, the reaction mixtures were centrifuged at 4000 rpm for 20 min. Supernatants were diluted with ultrapure water (Table 4) and shaken for 10 min at 1000 rpm. […] The substrates and analytes were analyzed by LC-MS/MS (API4000, Applied Biosystems, Singapore; HPLC, Shimadzu, Japan). […]
Data analysis. […] The IC50 was determined by fitting the dependence of the relative remaining activity (y = Vi/V0) to the following three-parameter equation (Equation (1)). […]
In general terms: Liver microsomes are vesicles of endoplasmic reticulum, rich in cytochrome P450 enzymes.

T1 sequence (P08684 whole entry): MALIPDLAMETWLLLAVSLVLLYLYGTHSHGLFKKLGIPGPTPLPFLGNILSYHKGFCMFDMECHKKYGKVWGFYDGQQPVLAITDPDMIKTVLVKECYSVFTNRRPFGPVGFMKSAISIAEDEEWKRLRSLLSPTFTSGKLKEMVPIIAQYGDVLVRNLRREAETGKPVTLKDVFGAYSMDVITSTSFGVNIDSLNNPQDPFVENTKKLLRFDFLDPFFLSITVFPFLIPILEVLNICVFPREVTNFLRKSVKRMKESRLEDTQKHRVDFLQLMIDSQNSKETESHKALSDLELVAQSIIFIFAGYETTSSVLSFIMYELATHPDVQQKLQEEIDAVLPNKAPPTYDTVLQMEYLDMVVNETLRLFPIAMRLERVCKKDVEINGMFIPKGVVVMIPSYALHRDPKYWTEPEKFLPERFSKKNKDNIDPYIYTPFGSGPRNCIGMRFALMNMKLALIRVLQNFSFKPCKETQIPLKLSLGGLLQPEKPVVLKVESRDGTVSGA

What is called IC50 is the point on the concentration scale where inhibition reaches its midpoint. Regarding `CC(C)(O)[C@@H]1CC[C@@](C)([C@H]2CC[C@]3(C)[C@@H]2[C@H](O)C[C@@H]2[C@@]4(C)CC[C@H](O)C(C)(C)[C@@H]4CC[C@]23C)O1` [PDQ, (20S,24S)-dammar-20,24-epoxy-3β, 12β, 25-triol], the IC50 was 2.02 µM (HLM 0.1 mg/mL, probe midazolam 2 µM, 3 min, read-out: IC50 on CYP3A4 (Midazolam)); 6.79 µM (HLM 0.1 mg/mL, probe testosterone 40 µM, 10 min, read-out: IC50 on CYP3A4 (Testosterone)); 2.02 to 6.79 µM (HLM, midazolam and testosterone as substrates, read-out: IC50 on CYP3A4 (range over both substrates)).

The values above are taken from publication PMC11173382, “In Vitro Investigations into the Potential Drug Interactions of Pseudoginsenoside DQ Mediated by Cytochrome P450 and Human Drug Transporters” (Molecules, 2024).
